This note sets out measurements from US20210283139A1, “BIFUNCTIONAL MOLECULES FOR TARGETING UCHL5” (AMPHISTA THERAPEUTICS LTD, priority 2018, published 2021).

Common to all, as to format: cell-based
The test system of data set [1] is MV4-11 cells. The experiment in a line: Anti-proliferative effect, CellTiter-Glo assay. Conditions: MV4-11, CellTiter-Glo, 72 h incubation, 5 μM and below. The protocol: The anti-proliferative effects of representative compounds were measured using the CellTiter-Glo assay (Promega). MV4-11 cells were incubated in a sterile, white, clear-bottomed 384-well cell-culture microplate (Greiner Bio-one), at 2× concentration in RPMI media and a volume of 25 μl. The next day, test compounds were serially diluted in RPMI media to 2× concentration, then added to cells to make a final volume of 50 μl. After a 72 h incubation 25 μl of CellTiter-Glo reagent was added to each well. Following 15 minute incubation the luminescence signal was read on a Pherastar FS. The final concentration of assay components are as follows: 3×10^5 cells/mL, 0.05% DMSO, 5 μM and below compound. Data (FIG. 11) was processed and dose-response curves generated using Prism 8 (Graphpad).
Background: ATP-based viability assays read luminescence as a measure of living cells.

In data set [2] the target is T1, Brd3 (Homo sapiens, UniProt Q15059). Nature of the data set: Concentration-dependent BET degradation, immunoblot, HEK293 cells. The arrangement: endogenous in cells; host or cells: HEK293. As to conditions: HEK293, Brd3, 6 h treatment, 1 nM-10 μM; for Dmax: read-out: Dmax (%) maximum degradation observed. Summed up: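 Degradation after 6 h treatment at 1 nM-10 μM, quantified from tubulin-normalized western band intensities relative to 0.1% DMSO-treated cells.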

The target of data set [3] is Brd2 (Homo sapiens, UniProt P25440). The experiment in a line: Time-dependent BET degradation, immunoblot, HEK293 cells. The arrangement: endogenous in cells; host or cells: HEK293. Conditions: HEK293, Brd2, 1 μM, timecourse 0-8 h. How it is done:
(§1) Cell culture. HeLa (CCL-2) and HEK293 (CRL-1573) cells were purchased from ATCC and cultured in DMEM medium (Gibco) supplemented with 10% FBS, 100 μg/mL penicillin/streptomycin and L-glutamine. Cells were grown at 37° C. and 5% CO2, and were kept no longer than 30 passages. All cell lines were routinely tested for mycoplasma contamination using MycoAlert kit from Lonza.
(§2) Immunoblotting. proteins were separated by SDS-PAGE on NuPage 4-12% Bis-Tris gels, followed by transfer to Amersham Protran 0.45 NC nitrocellulose membrane (GE Healthcare) using wet transfer. Membranes were blocked using 5% w/v milk in Tris-buffered saline (TBS) with 0.1% Tween-20. Blots were probed (overnight at 4° C.) using anti-Brd2 (Abcam ab139690, 1:2,000 dilution), anti-Brd3 (Abcam ab50818, 1:500 dilution), and anti-Brd4 (Abcam ab128874, 1:1,000 dilution) primary antibodies, as appropriate. The next day, blots were washed with TBST and incubated (1 hr at RT) with anti-Tubulin hFAB-rhodamine (BioRad, 12004166) primary antibody, and either anti-rabbit IRDye 800CW (Licor 1:10,000 dilution) or anti-mouse IRDye 800CW (Licor 1:10,000 dilution) secondary antibody. Blots were developed using a Bio-Rad ChemiDoc MP Imaging System, and band quantification was performed using Image Studio software (LiCor). Band intensities were normalized to the tubulin loading control and reported as % of the average 0.1% DMSO vehicle intensity. Degradation data was plotted and analysed using Prism (Graphpad, version 8).
(§3) HeLa (3×10^5) and HEK293 (0.5×10^6) cells were seeded in standard 6-well plates (2 mL medium) overnight before treatment with compounds at 1 μM concentration, with a final DMSO concentration of 0.1% v/v. After incubation for the desired time (0-8 h), cells were washed with DPBS (Gibco) and lysed using 85 μL RIPA buffer (Sigma-Aldrich) supplemented with cOmplete Mini EDTA-free protease inhibitor cocktail (Roche) and benzonase. Lysates were clarified by centrifugation (20,000 g, 10 min, 4° C.) and the total protein content of the supernatant was quantified using a Bradford colorimetric assay. Samples were prepared using equal amounts of total protein and LDS sample buffer (Invitrogen).
(§4) Representative blots in FIG. 4 show depletion of Brd2, Brd3 and Brd4 protein levels following 1 μM treatment at various time points with representative compounds. Band intensities were normalized to the β-tubulin loading control and reported as % of the average 0.1% DMSO vehicle intensity, with each point representing mean±SEM of two independent experiments (n=2). Degradation data was plotted and analysed using Prism (Graphpad, version 8).
(§5) T½ (h) is the time required to deplete 50% of the protein relative to DMSO

Data set [4] addresses T1, Brd3. Described as above. The arrangement: endogenous in cells; host or cells: HEK293. As to conditions: HEK293, Brd3, 1 μM, timecourse 0-8 h. How it is done: as §1, §2, §3, §4, §5
The test system of data set [5] is c-MYC. The experiment in a line: Immunoblot of c-MYC levels in MV4-11 cells. Conditions: MV4-11, 6 h. How it is done:
MV4-11 (0.7×10^6 cells/mL) were seeded in 10 cm plates (10 mL DMEM supplemented with 10% FBS and L-glutamine) overnight before treatment with compounds at the desired concentration and with a final DMSO concentration of 0.1% v/v. After 6 h incubation time, cells were washed 2× with DPBS (Gibco) and lysed using 85 μL RIPA buffer (Sigma-Aldrich) supplemented with cOmplete Mini EDTA-free protease inhibitor cocktail (Roche) and benzonase. Lysates were clarified by centrifugation (20,000 g, 10 min, 4° C.) and the total protein content of the supernatant was quantified using a Bradford colorimetric assay. Samples were prepared using equal amounts of total protein and LDS sample buffer (Invitrogen). For immunoblot analysis, the following antibodies were used: anti-Brd2 (ab139690, 1:2,000 dilution), anti-Brd3 (ab50818, 1:500 dilution), anti-Brd4 (ab128874, 1:1,000 dilution), anti-c-myc (ab32072, 1:1,000 dilution), anti- total PARP (BD Bioscience #556494; 1:1,000 dilution), anti-cleaved PARP (CST-9541T, 1:1,000 dilution), and anti-Tubulin hFAB-rhodamine (BioRad, 12004166, 1:10,000 dilution).
On the technique in general: A western blot detects proteins with antibodies after separation by electrophoresis.

T1 sequence (Q15059 whole entry): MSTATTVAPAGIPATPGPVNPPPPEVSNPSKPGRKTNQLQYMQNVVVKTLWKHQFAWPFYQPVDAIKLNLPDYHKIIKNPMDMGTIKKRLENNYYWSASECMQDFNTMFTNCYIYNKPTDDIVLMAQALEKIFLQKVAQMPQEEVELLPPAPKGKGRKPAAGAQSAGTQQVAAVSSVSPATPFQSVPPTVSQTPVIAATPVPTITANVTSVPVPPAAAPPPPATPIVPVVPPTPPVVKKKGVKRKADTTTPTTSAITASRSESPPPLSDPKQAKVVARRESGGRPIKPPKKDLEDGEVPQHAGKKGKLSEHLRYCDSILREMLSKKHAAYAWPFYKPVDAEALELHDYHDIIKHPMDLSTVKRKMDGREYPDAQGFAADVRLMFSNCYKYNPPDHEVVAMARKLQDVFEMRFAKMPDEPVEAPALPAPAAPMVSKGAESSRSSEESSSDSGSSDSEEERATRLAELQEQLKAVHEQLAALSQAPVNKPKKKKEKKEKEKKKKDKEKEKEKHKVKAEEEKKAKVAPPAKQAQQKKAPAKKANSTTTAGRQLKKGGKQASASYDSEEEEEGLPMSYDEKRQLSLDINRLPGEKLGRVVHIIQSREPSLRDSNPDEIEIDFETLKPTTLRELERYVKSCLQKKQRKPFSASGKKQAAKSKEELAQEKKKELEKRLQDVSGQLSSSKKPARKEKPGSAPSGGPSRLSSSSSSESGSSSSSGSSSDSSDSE
Sequence of Brd2 (P25440 whole entry): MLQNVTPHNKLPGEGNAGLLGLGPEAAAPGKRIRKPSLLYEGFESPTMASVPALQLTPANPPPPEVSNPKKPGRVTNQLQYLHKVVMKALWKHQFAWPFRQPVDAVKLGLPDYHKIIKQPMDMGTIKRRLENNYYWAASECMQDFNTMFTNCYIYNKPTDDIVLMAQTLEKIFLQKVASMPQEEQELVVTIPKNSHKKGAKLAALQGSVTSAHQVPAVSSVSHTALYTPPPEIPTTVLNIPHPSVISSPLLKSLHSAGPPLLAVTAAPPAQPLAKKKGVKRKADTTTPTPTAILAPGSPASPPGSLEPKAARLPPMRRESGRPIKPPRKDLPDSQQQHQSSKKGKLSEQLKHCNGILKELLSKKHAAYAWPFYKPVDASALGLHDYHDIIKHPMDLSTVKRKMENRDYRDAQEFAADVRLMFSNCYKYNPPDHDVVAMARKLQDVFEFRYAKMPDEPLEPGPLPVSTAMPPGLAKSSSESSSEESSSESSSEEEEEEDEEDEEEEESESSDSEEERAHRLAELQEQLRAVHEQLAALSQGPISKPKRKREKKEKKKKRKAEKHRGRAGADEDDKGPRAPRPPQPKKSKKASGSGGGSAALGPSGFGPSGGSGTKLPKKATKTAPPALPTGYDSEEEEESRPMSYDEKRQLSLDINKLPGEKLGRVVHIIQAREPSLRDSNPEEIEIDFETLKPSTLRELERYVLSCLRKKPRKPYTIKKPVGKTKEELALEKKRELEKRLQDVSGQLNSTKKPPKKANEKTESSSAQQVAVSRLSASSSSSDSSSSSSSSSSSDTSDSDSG

Usually DC50 stands for the concentration giving 50% degradation. A higher DC50 goes with degradation only at high concentration. Usually Dmax stands for the largest share of the target that was removed. As for `CCCC(NC(=O)/C(C#N)=C/c1cccc(Br)n1)c1ccc(OCC=NOCC(=O)NCCOCCOCCOCCOCCOCCNC(=O)c2ccc3c(c2)[C@H](Nc2ccc(Cl)cc2)C[C@H](C)N3C(C)=O)cc1` (some centres unmarked) [Example 05IB3], in data set [1], the “cytotoxicity profile (anti-proliferative effect)” value (“cytotoxicity profile” below) was “distinct from I-BET726 and inactive 05IB11”. Also, in data set [2], the half-maximal degradation concentration (DC50) is at most 50 nM and the Dmax is at least 71%. For the same compound, in data set [3], the Dmax at 1 µM was determined as 83%. The compound further yielded a Dmax at 1 µM in data set [4] of 100%.

`CCCC(NC(=O)/C(C#N)=C/c1nccs1)c1ccc(OCCOCCOCCOCCOCCOCCOCCNC(=O)c2ccc(-c3ccc4c(c3)[C@H](Nc3ccc(Cl)cc3)C[C@H](C)N4C(C)=O)cc2)cc1` (some centres unmarked) [Example 05IB9]: in data set [5], the “decrease in c-MYC compared with inhibitor and negative control” value was “greater than inhibitor (I-BET726) alone and the negative control (05IB11)”. The c-MYC levels entry in data set [5] (increasing concentrations) is on record as “depletion”. For the same compound, the “cytotoxicity profile” value in data set [1] is “distinct from I-BET726 and inactive 05IB11”. In data set [2], this compound displayed a DC50 of at most 50 nM. Further, the Dmax in data set [2] lay in the range of 51 to 70%. The results for the maximal degradation (Dmax) at 1 µM in data set [3] and in data set [4] were 73% and 60%, respectively.

Turning to `CCCC(NC(=O)/C(C#N)=C/c1cccc(Br)n1)c1ccc(OCCOCCOCCOCCOCCOCCOCCNC(=O)c2ccc(-c3ccc4c(c3)[C@H](Nc3ccc(Cl)cc3)C[C@H](C)N4C(C)=O)cc2)cc1` (some centres unmarked) [Example 05IB6], in data set [1], the “cytotoxicity profile” value was “distinct from I-BET726 and inactive 05IB11”. Further, in data set [2], the DC50 was in the range of 51 to 500 nM and the greatest degradation seen (Dmax) was in the range of 51 to 70%. The maximal degradation (Dmax) at 1 µM in data set [3] is 76%. This compound had a Dmax at 1 µM in data set [4] of 74%.
